According to PubChem BioAssay AID248 (DTP/NCI, 2004):
Where “and” joins values, the source holds several entries; their conditions need not be identical. Identical values can stand only once. Toxic doses and inconclusive results are not listed. Rule as the data show it: active = T/C of 150% or more; inactive = T/C below 125%.

System: L1210 leukemia ip in BDF1 mice, survival T/C
Experiment: NCI In Vivo Anticancer Drug Screen. Data for tumor model L1210 Leukemia (intraperitoneal) in B6D2F1 (BDF1) mice
Conditions: endpoint: mean survival time, higher = longer survival
How it was run: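 Antitumor effect is assessed in tumor-bearing animals. Survival in the compound arm is compared with a vehicle-dosed control arm and expressed as their quotient.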

[1] = dose: 100.0 mg/kg/injection, schedule: Q01DX009 (ip), vehicle: Klucel (hydroxypropylcellulose) (HPC)
[2] = dose: 200.0 mg/kg/injection, schedule: Q01DX009 (ip), vehicle: Klucel (hydroxypropylcellulose) (HPC)
[3] = dose: 100.0 mg/kg/injection, schedule: Q04DX003 (ip), vehicle: saline with Tween-80
[4] = dose: 400.0 mg/kg/injection, schedule: Q01DX009 (ip), vehicle: Klucel (hydroxypropylcellulose) (HPC)
[5] = dose: 100.0 mg/kg/injection, schedule: Q01DX009 (ip), vehicle: saline with Tween-80
[6] = dose: 200.0 mg/kg/injection, schedule: Q01DX009 (ip), vehicle: saline with Tween-80

Measured: T/C

CCOC(=O)OCCc1ccccc1
inactive: dose: 100.0 mg/kg/injection, schedule: Q01DX001 (ip), vehicle: carboxymethylcellulose (CMC) 106 % of control | dose: 100.0 mg/kg/injection, schedule: Q01DX009 (ip), vehicle: carboxymethylcellulose (CMC) 103 % of control and 92 % of control | dose: 100.0 mg/kg/injection, schedule: Q04DX002 (ip), vehicle: carboxymethylcellulose (CMC) 97 % of control and 109 % of control | dose: 100.0 mg/kg/injection, schedule: Q04DX003 (ip), vehicle: carboxymethylcellulose (CMC) 98 % of control | dose: 200.0 mg/kg/injection, schedule: Q01DX001 (ip), vehicle: carboxymethylcellulose (CMC) 100 % of control | dose: 200.0 mg/kg/injection, schedule: Q01DX009 (ip), vehicle: carboxymethylcellulose (CMC) 95 % of control and 103 % of control | dose: 200.0 mg/kg/injection, schedule: Q04DX002 (ip), vehicle: carboxymethylcellulose (CMC) 98 % of control and 100 % of control | dose: 200.0 mg/kg/injection, schedule: Q04DX003 (ip), vehicle: carboxymethylcellulose (CMC) 98 % of control | dose: 400.0 mg/kg/injection, schedule: Q01DX001 (ip), vehicle: carboxymethylcellulose (CMC) 105 % of control | dose: 400.0 mg/kg/injection, schedule: Q01DX009 (ip), vehicle: carboxymethylcellulose (CMC) 93 % of control and 98 % of control | dose: 400.0 mg/kg/injection, schedule: Q04DX002 (ip), vehicle: carboxymethylcellulose (CMC) 97 % of control and 106 % of control | dose: 400.0 mg/kg/injection, schedule: Q04DX003 (ip), vehicle: carboxymethylcellulose (CMC) 102 % of control

Cc1ccccc1Nc1cc(=O)[nH]c(N)n1
inactive: dose: 100.0 mg/kg/injection, schedule: Q01DX Z (ip), vehicle: methylcellulose (MC) 102 % of control | dose: 200.0 mg/kg/injection, schedule: Q01DX Z (ip), vehicle: methylcellulose (MC) 102 % of control

CC(C)OC(=S)SSC(=S)OC(C)C
inactive: dose: 50.0 mg/kg/injection, schedule: Q01DX009 (ip), vehicle: Klucel (hydroxypropylcellulose) (HPC) 105 % of control | dose: 100.0 mg/kg/injection, schedule: Q01DX001 (ip), vehicle: saline 96 % of control | [1] 92 % of control | dose: 100.0 mg/kg/injection, schedule: Q04DX003 (ip), vehicle: other 107 % of control | dose: 200.0 mg/kg/injection, schedule: Q01DX001 (ip), vehicle: saline 100 % of control | [2] 90 % of control | dose: 200.0 mg/kg/injection, schedule: Q04DX003 (ip), vehicle: other 98 % of control | dose: 400.0 mg/kg/injection, schedule: Q01DX001 (ip), vehicle: saline 102 % of control

c1nc(SCSc2ncnc3nc[nH]c23)c2[nH]cnc2n1
inactive: [3] 97 % of control | dose: 200.0 mg/kg/injection, schedule: Q04DX003 (ip), vehicle: saline with Tween-80 90 % of control | dose: 400.0 mg/kg/injection, schedule: Q04DX003 (ip), vehicle: saline with Tween-80 90 % of control

O=C(Nc1ccc(Cl)c(Cl)c1)c1ccc(C(=O)Nc2ccc(Cl)c(Cl)c2)cc1
inactive: [1] 91 % of control | [2] 92 % of control | [4] 86 % of control

CCCCCCC(O)CCCC (stereo unspecified)
inactive: [5] 117 % of control | dose: 100.0 mg/kg/injection, schedule: Q04DX003 (ip), vehicle: Klucel (hydroxypropylcellulose) (HPC) 91 % of control | [6] 110 % of control | dose: 200.0 mg/kg/injection, schedule: Q04DX003 (ip), vehicle: Klucel (hydroxypropylcellulose) (HPC) 88 % of control | dose: 400.0 mg/kg/injection, schedule: Q01DX009 (ip), vehicle: saline with Tween-80 122 % of control | dose: 400.0 mg/kg/injection, schedule: Q04DX003 (ip), vehicle: Klucel (hydroxypropylcellulose) (HPC) 88 % of control

CCOc1ccc(OC/C=C(\C)CCC=C(C)C)cc1
inactive: [5] 103 % of control | dose: 100.0 mg/kg/injection, schedule: Q04DX002 (ip), vehicle: saline with Tween-80 101 % of control | [6] 92 % of control | dose: 200.0 mg/kg/injection, schedule: Q04DX002 (ip), vehicle: saline with Tween-80 94 % of control | dose: 400.0 mg/kg/injection, schedule: Q04DX002 (ip), vehicle: saline with Tween-80 94 % of control

CC1=CCCC1
inactive: dose: 100.0 mg/kg/injection, schedule: Q01DX009 (ip), vehicle: saline 101 % of control | dose: 200.0 mg/kg/injection, schedule: Q01DX009 (ip), vehicle: saline 95 % of control | dose: 400.0 mg/kg/injection, schedule: Q01DX009 (ip), vehicle: saline 95 % of control

COc1ccc(COC(=O)Nc2ccccc2Cl)cc1
inactive: [1] 91 % of control | dose: 100.0 mg/kg/injection, schedule: Q04DX002 (ip), vehicle: Klucel (hydroxypropylcellulose) (HPC) 95 % of control | [2] 96 % of control | [4] 104 % of control | dose: 400.0 mg/kg/injection, schedule: Q04DX002 (ip), vehicle: Klucel (hydroxypropylcellulose) (HPC) 95 % of control

Cc1ccc(C(C)NC2=NCCO2)c(C)c1 (stereo unspecified)
inactive: [3] 105 % of control

c1ccc(C2=NC(c3ccccc3)C(c3ccccc3)N2)cc1 (stereo unspecified)
inactive: dose: 100.0 mg/kg/injection, schedule: Q01DX001 (ip), vehicle: Klucel (hydroxypropylcellulose) (HPC) 97 % of control | dose: 200.0 mg/kg/injection, schedule: Q01DX001 (ip), vehicle: Klucel (hydroxypropylcellulose) (HPC) 94 % of control | dose: 400.0 mg/kg/injection, schedule: Q01DX001 (ip), vehicle: Klucel (hydroxypropylcellulose) (HPC) 89 % of control
